Experimental data taken from PMC11191317, “PNSC928, a plant-derived compound, specifically disrupts CtBP2-p300 interaction and reduces inflammation in mice with acute respiratory distress syndrome” (Biology Direct, 2024).

Tested on: C57BL/6 mice
Test: In vivo toxicity in C57BL/6 mice (body weight, serum cytokines, liver and kidney function, H&E)
Set-up: species or system mouse
Conditions: for Body weight: C57BL/6 mice, 6 days, MTOB 400 and 800, NSC95397 2 and 4, C646 5 and 10, A-485 40 and 80, TPCA1 10 and 20, BOT64 30 and 60 mg/kg
Procedure: Whole blood samples were allowed to stand undisturbed at room temperature for 15 min before being centrifuged at 1,000 × g for 10 min. The supernatant serum and BALF were used to measure concentrations of IL-1β, IL-6, IL-15, IL-18, and TNF-α with specific enzyme-linked immunosorbent assay (ELISA) kits as per manufacturer guidelines. The ELISA kits used were: IL-1β (Thermo Fisher; #KMC0011), IL-6 (Thermo Fisher; #KMC0061), IL-15 (Abcam; Shanghai, China; #ab275898), IL-18 (Thermo Fisher; #BMS618-3), and TNF-α (Thermo Fisher; #BMS607-3). Total BALF protein levels were measured using the BCA Protein Assay Kit (Abcam; #ab102536) according to the manufacturer’s protocol.
Serum activities or levels of alanine aminotransferase (ALT), aspartate aminotransferase (AST), alkaline phosphatase (ALP), blood urea nitrogen (BUN), and creatinine were measured using commercially available assay kits, including the ALT Activity Assay Kit (Abcam; #ab105134), AST Activity Assay Kit (Abcam; #ab105135), ALP Assay Kit (Abcam; #ab83369), BUN Colorimetric Detection Kit (Thermo Fisher; #EIABUN), and Creatinine Assay Kit (Abcam; #ab65340). All experimental procedures were conducted according to the respective manufacturer’s protocols.
Lung, heart, liver, and kidney tissues were collected from various groups of mice, including ARDS, ARDS + MTOB, ARDS + NSC95397, ARDS + C646, ARDS + A-485, ARDS + TPCA1, ARDS + BOT64, and ARDS + PNSC928. The tissues were fixed in 10% neutral-buffered formalin (Sigma-Aldrich; #HT501128) for 48 h, then dehydrated through a graded ethanol series (70%, 80%, 90%, and 100%, for 30 min each). The dehydrated tissues were embedded in paraffin blocks and allowed to solidify. The paraffin blocks were sectioned at 5 μm, with the sections floated on a water bath to remove wrinkles before being transferred onto glass slides. The slides were dried, dewaxed with xylene, and rehydrated through a reverse ethanol series (100%, 90%, 80%, and 70%, for 30 min each), followed by a final rinse in distilled water. The rehydrated sections were stained using the Hematoxylin and Eosin Kit (Abcam; #ab245880) according to the manufacturer’s guidelines. After staining, the sections were dehydrated through a graded ethanol series (70%, 80%, 90%, and 100%, for 30 min each), then cleared with xylene. The sections were mounted with a mounting medium (Abcam; #ab64230) and imaged using a Nikon light microscope for tissue morphology.
C57BL/6 mice were administrated with MTOB (400 and 800 mg/kg), NSC95397 (2 and 4 mg/kg), C646 (5 and 10 mg/kg), A-485 (40 and 80 mg/kg), TPCA1 (10 and 20 mg/kg), BOT64 (30 and 60 mg/kg) for a duration of 6 days (n = 10 for each group). (A-F) Body weights were measured every two days. (G-K) Serum concentrations of different groups of mice. (G) IL-1β, (H) IL-6, (I) IL-15, (J) IL-18, and (K) TNF-α. *P < 0.05
C57BL/6 mice were administrated with MTOB (400 and 800 mg/kg), NSC95397 (2 and 4 mg/kg), C646 (5 and 10 mg/kg), A-485 (40 and 80 mg/kg), TPCA1 (10 and 20 mg/kg), and BOT64 (30 and 60 mg/kg) for a duration of 6 days (n=10 for each group). (A) Serum concentration of IFN-γ in different groups of mice. (B) Serum BUN concentration. (C) Activities of ALT, AST, and ALP in serum. (D) Serum creatinine concentration. (E) Representative H&E staining images of lung, liver, kidney, and heart from the following groups of mice: Control, MTOB (800 mg/kg), NSC95397 (4 mg/kg), C646 (10 mg/kg), A-485 (80 mg/kg), TPCA1 (20 mg/kg), and BOT64 (60 mg/kg). Bars=100 μm. For the significant difference analysis in B-D, all drug-treated groups were compared with the Control group of mice. *P<0.05; **P<0.01; ***P<0.001.
[…] (A) Serum ALT activity. (B) Serum AST activity. (C) Serum ALP activity. (D) Serum BUN concentration. (E) Serum creatinine concentration. (F) Body weights were recorded every two days. (G) Representative H&E staining images of lung, liver, kidney, and heart. Bars=100 μm.

[1] = PNSC928 0, 5, 10, and 20 mg/kg at two-day intervals for 6 days

SMILES	Body weight	further results
CNC(=O)Nc1ccc2c(c1)CC[C@@]21OC(=O)N(CC(=O)N(Cc2ccc(F)cc2)[C@@H](C)C(F)(F)F)C1=O [A-485]	significant decrease in body weight	
CC1(C)CC(=O)c2sc(=Nc3ccccc3)oc2C1 [BOT64]	significant decrease in body weight	
CC1=NN(c2ccc(C(=O)O)cc2)C(=O)/C1=C\c1ccc(-c2cc(C)c(C)cc2[N+](=O)[O-])o1 [C646]	significant decrease in body weight	
CSCCC(=O)C(=O)O [MTOB]	significant decrease in body weight	
O=C1C(SCCO)=C(SCCO)C(=O)c2ccccc21 [NSC95397]	significant decrease in body weight	
CC(=CCCC1=CCC(C2COC(=O)C2)OC1O)CCC1=C(C)CCCC1(C)C (stereo not shown) [PNSC928]		Activities and levels of ALT, AST, ALP, BUN, and creatinine [1]: no discernible alterations; Histological examination of lung, heart, liver, and kidney [1]: no conspicuous damage; Mouse body weights [1]: did not affect mouse body weights; Behavioral activities (feeding, balance ability, sleeping patterns) (PNSC928 0, 5, 10, and 20 mg/kg at two-day intervals for 6 days, data not shown): did not affect
NC(=O)Nc1sc(-c2ccc(F)cc2)cc1C(N)=O [TPCA1]	significant decrease in body weight	
